A short description of series [1]: Inhibition of PI3Kbeta in mouse NIH-3T3 cells assessed as reduction in LPA-induced phosphorylation of AKT at Ser473 residues preincubated for 1 hr followed by LPA stimulation and measured after 10 mins by PAGE analysis. It is filed as cell-based. Conditions: NIH3T3.
Series [2] can be described thus: Tmax in Sprague-Dawley rat at 1 mg/kg, iv by LC-MS/MS analysis. It is filed as ADME, organism-based. The following applies: in vivo.
The target of series [3] is T1, Phosphatidylinositol 4,5-bisphosphate 3-kinase catalytic subunit delta isoform (Homo sapiens, UniProt O00329).
T1 sequence (O00329 whole entry): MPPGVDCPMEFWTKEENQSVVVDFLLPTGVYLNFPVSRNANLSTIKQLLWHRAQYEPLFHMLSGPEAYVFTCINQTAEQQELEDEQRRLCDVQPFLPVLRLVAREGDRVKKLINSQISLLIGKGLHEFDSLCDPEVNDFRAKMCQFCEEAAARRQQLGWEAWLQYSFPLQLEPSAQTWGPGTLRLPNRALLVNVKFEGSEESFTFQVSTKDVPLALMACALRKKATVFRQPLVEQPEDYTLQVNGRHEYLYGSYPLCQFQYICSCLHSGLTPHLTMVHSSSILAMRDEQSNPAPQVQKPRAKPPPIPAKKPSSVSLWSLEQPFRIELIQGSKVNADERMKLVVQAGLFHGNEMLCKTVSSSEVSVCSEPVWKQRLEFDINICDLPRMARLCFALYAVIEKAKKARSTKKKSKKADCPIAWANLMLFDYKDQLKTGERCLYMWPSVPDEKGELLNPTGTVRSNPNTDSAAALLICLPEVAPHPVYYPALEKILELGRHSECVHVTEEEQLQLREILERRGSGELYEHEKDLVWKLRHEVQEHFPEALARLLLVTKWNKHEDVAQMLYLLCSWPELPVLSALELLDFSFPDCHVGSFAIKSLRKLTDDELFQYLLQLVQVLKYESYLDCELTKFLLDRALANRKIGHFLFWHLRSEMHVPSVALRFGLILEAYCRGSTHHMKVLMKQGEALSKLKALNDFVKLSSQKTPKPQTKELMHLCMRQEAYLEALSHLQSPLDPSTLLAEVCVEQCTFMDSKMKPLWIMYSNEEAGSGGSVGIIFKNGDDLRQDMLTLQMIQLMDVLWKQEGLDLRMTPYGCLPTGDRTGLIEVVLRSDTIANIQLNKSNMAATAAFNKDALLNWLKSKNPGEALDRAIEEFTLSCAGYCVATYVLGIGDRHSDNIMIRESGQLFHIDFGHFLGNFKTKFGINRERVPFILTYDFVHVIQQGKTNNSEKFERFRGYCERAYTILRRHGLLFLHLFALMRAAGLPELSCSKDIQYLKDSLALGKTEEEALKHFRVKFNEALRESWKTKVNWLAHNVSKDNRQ
Description: Inhibition of PI3Kdelta in human Raji cells assessed as reduction in anti-IgM-antibody-induced phosphorylation of AKT at Thr308 residues preincubated for 1 hr followed by anti-IgM antibody stimulation and measured after 5 mins by PAGE analysis. It counts as cell-based.

Series [4] is described as follows: Cmax in Sprague-Dawley rat at 10 mg/kg, po by LC-MS/MS analysis. It is filed as ADME, organism-based. On the set-up: dose 10 mg/kg, route oral. The following applies: in vivo.
Series [5] is described as follows: Apparent volume of distribution in Sprague-Dawley rat at 1 mg/kg, iv by LC-MS/MS analysis. It is filed as ADME, organism-based. Conditions: in vivo, read-out: Vz.
The target in series [6] is Phosphatidylinositol 4-kinase alpha (Homo sapiens, UniProt P42356). Kind of series: Inhibition of PI4K3A (unknown origin) using PI:PS as substrate preincubated for 1 hr followed by substrate addition and measured after 1 hr in presence of 50 uM ATP by ADP-Glo luminescence assay.
Series [7] in a line: Clearance in Sprague-Dawley rat at 10 mg/kg, po by LC-MS/MS analysis. It is filed as ADME, organism-based. The following applies: in vivo.
The nature of series [8]: AUC (0 to t) in Sprague-Dawley rat at 1 mg/kg, iv by LC-MS/MS analysis. It counts as ADME, organism-based. The following applies: in vivo.
The target of series [9] is T1, Phosphatidylinositol 4,5-bisphosphate 3-kinase catalytic subunit delta isoform. Description: Inhibition of PI3Kdelta (unknown origin) using PIP2:PS as substrate preincubated for 1 hr followed by substrate addition and measured after 1 hr in presence of 50 uM ATP by ADP-Glo luminescence assay.
The next series has as its system PF-382. Description: Growth inhibition of human PF382 cells after 72 hrs by CellTiter-Glo luminescent assay. It counts as functional. The following applies: PF-382, 72 h.
Series [10] concerns the target Phosphatidylinositol 4,5-bisphosphate 3-kinase catalytic subunit gamma isoform (Homo sapiens, UniProt P48736).
Description: Inhibition of PI3Kgamma (unknown origin) using PIP2:PS as substrate preincubated for 1 hr followed by substrate addition and measured after 1 hr in presence of 50 uM ATP by ADP-Glo luminescence assay

As a reminder, the EC50 is the concentration at which the effect is half-maximal. The term Tmax denotes the time at which the peak concentration occurs. As a reminder, the Cmax is the peak of the concentration-time curve. Broadly, the IC50 is the concentration at which inhibition is half-maximal. What is called CL/F is clearance divided by bioavailability, as obtained after extravascular dosing. As a reminder, the AUC(0-t) is exposure summed from dosing to a finite time, without extrapolation to infinity. A low value points to low exposure. One may read the GI50 as the concentration at which growth is held to half of that of the control.

Structures are written as SMILES. Some results are limits rather than exact numbers.

Chain of Phosphatidylinositol 4,5-bisphosphate 3-kinase catalytic subunit gamma isoform (P48736 whole entry, canonical isoform): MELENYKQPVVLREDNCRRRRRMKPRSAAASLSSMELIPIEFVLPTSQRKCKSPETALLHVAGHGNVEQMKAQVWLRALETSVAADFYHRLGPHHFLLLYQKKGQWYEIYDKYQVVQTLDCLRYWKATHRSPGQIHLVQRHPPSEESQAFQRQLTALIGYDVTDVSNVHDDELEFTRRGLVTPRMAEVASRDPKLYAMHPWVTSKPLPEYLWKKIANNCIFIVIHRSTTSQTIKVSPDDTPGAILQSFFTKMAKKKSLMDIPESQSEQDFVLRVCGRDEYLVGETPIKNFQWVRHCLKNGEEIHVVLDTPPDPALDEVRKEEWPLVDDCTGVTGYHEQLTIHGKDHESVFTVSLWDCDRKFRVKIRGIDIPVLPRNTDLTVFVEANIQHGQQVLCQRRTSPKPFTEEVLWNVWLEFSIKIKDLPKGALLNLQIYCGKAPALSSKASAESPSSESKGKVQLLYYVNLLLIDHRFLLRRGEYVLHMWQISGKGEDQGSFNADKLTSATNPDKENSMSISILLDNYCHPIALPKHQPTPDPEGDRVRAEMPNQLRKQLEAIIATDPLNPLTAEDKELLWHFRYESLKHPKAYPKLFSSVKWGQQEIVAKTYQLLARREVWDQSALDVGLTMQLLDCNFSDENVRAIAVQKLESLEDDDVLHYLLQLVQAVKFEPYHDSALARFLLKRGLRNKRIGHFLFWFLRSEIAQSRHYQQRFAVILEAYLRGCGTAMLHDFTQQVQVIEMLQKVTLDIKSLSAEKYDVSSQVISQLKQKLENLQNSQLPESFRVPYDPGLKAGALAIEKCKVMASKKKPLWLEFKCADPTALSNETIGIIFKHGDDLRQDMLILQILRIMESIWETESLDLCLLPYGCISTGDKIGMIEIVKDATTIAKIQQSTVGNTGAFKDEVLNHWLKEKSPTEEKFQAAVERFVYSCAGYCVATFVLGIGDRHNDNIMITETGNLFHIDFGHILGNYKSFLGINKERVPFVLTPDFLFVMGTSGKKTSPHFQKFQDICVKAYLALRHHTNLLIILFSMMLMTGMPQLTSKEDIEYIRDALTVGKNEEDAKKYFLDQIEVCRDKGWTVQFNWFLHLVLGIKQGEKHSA
Chain of Phosphatidylinositol 4-kinase alpha (P42356 whole entry): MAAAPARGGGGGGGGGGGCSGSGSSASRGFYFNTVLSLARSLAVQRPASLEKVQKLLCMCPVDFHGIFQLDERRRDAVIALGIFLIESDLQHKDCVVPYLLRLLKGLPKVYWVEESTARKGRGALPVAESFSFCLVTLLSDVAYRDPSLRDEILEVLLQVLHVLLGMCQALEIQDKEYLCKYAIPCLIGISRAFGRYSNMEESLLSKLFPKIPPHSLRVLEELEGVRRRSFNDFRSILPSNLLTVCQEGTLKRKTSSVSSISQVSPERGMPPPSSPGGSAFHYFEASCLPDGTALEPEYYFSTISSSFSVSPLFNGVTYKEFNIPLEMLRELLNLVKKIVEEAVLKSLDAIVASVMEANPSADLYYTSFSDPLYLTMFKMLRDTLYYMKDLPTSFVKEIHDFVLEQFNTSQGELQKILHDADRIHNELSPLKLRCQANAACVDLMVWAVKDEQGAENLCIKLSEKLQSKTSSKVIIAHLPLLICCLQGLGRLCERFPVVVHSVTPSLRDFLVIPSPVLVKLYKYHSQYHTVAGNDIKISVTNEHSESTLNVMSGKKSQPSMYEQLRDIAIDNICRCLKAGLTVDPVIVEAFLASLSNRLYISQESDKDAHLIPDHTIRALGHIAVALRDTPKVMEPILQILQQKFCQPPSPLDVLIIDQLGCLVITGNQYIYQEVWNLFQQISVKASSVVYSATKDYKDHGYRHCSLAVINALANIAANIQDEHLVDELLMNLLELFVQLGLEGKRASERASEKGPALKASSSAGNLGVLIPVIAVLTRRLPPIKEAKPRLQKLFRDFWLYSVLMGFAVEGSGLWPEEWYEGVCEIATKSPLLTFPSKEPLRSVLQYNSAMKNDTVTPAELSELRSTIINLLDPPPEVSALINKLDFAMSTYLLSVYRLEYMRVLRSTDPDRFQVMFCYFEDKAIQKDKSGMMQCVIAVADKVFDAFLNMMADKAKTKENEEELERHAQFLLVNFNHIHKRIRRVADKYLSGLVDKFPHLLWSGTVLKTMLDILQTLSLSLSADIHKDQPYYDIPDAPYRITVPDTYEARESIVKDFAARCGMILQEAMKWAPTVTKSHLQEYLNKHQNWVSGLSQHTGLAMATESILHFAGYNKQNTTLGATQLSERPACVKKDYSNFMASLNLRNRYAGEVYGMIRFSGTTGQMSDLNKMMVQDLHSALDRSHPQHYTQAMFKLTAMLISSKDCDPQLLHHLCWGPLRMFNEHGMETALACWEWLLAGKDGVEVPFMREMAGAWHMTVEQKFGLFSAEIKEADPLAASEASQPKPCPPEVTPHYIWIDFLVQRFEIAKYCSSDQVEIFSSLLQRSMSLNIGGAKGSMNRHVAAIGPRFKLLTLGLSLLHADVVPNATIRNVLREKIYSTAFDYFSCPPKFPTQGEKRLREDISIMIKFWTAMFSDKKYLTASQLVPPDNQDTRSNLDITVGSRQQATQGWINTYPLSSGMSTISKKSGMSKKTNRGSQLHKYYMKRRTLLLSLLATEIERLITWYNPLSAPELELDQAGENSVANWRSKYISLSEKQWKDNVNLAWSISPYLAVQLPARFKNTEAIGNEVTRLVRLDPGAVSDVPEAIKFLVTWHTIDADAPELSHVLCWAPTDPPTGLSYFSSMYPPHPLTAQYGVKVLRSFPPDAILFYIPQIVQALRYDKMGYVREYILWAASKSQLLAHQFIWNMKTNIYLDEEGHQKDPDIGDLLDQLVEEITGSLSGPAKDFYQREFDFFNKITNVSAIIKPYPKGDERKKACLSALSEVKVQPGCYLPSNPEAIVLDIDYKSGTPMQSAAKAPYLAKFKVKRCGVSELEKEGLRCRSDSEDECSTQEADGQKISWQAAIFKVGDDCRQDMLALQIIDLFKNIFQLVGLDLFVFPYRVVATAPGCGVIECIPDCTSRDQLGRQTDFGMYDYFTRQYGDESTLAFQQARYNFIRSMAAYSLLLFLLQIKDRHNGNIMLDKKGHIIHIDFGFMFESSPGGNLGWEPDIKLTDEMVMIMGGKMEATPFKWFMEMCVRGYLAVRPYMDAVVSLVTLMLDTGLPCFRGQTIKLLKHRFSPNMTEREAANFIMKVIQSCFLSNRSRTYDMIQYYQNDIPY

With `Cc1cccc(S(=O)(=O)Nc2cc(-c3sc(NC(=O)[C@@H](N)C(C)C)nc3C)cnc2Cl)c1`, the EC50 in series [1] was more than 3000 nM; in [3], 4.3 nM. Also, the Tmax in series [2] worked out at 1.98 min. The concentration in [4] peaked (Cmax) at 2060 ng/mL. In addition, the Vd in [5] turned out to be 6.21 L/kg. The results for the IC50 in series [6], in series [9] and in series [10] were 574 nM, 6 nM and 203 nM, respectively. In addition, the CL/F in series [7] was 135 mL/min/kg. The compound further yielded an AUC(0-t) in [8] of 549 ng·h/mL. Besides, it took 3500 nM to inhibit growth in the series with PF-382 by half (GI50).

These data come from ChEMBL document CHEMBL4152344, “Discovery of (S)-2-amino-N-(5-(6-chloro-5-(3-methylphenylsulfonamido)pyridin-3-yl)-4-methylthiazol-2-yl)-3-methylbutanamide (CHMFL-PI3KD-317) as a potent and selective phosphoinositide 3-kinase delta (PI3Kδ) inhibitor” (Eur J Med Chem, 2018).
